Data: US20230102836A1, “Amoebicidal Compositions for Contact Lens Solutions” (University of the West of Scotland, priority 2019, published 2023)
Several values for one entry are separate records, joined by “and”; a condition that tells them apart may be missing. Equal entries are not always repeated. Where two headings read alike, the source gives them in different places.

What was measured:
[1] = test system: Acanthamoeba trophozoites; assay: Checkerboard dilution QAC-APC interaction (Bliss model); assay type: cell-based, Acanthamoeba castellanii; details: APC12, APC14, APC16; 96 h at 25° C.
Experimental: Acanthamoeba trophozoites (10^5 cells/ml. n=5/treatment) treated with 100 μg/ml doubly diluted to 0.06 μg/ml of QAC12 (FIG. 7A), […], QAC16 (FIG. 7C) and QAC18 (FIG. 7D) with APC 12 (i), APCI 4 (ii) and APC16 (iii) for 96 h at 25° C. Cell viability estimated by the alamarBlue assay the dose-response curves used to produce a surface analysis (right panel) and the interaction profile determined using the Bliss model. The degree of interaction characterised by the QCScore heuristic score are produced as heat map (left panel). The colour of each cell in the heatmap and the surface analysis represents the assay response at that dose combination; red to orange, antagonistic: yellow to green, additive and blue, synergistic.
The change in potency between QAC and APC prompted us to used the checkerboard dilution method to identify synergistic interactions (FIG. 7A-D). Three interaction profiles, antagonistic (orange to red), additive (yellow to green) and synergistic (blue) were observed, with optimal synergistic interactions deemed to be significant occurring between 20-38%; (FIG. 7).

A. castellanii cysts [2] = assay: Cytotoxicity assay on cysts (trypan blue); assay type: cell-based, Acanthamoeba castellanii ATCC 50370; details: Acanthamoeba castellanii
Experimental: (§1) Acanthamoeba castellanii ATCC 50370 trophozoites and cysts were cultured in Peptone Glucose (PG) medium and encystment medium (Chagla A H, Griffiths A J (1974) Microbiology: 85(1): 139-145) respectively at 25° C. Cysts were prepared by incubating trophozoites for 8 days in encystment medium and integrity validated with calcofluor (0.25 μg/ml) assay (Gatti S et al (2010) J. Med. Microbiol.; 59: 1324-1330) or sodium dodecyl sulfate (SDS, 0.5% w/v) disintegration assay (Dudley R et al (2005) Acta Trop.; 9: 100-8) and microscopic observation.
The compounds used in this study all contained alkyl-carbon chains: three APCs [dodecyl-PC (APC12), tetradecyl-PC. (APC14) and hexadecyl-PC (APC16)] (Anatrace) and four QACs [docdecyl-TMAB (QAC12), tetradecyl-TMAB (QAC14), hexadecyl-TMAB (QAC16) and octadecyl-TMAB (QAC18)](Sigma). All were prepared to a stock concentration of 1 mg/ml and diluted as required by the experimental protocol in the cytotoxicity assays. A. castellanii trophozoites and cysts (at 10^5 cells/ml) with or without APCs or QACs (concentrations ranging from […] doubly diluted to 0.04 μg/ml to a final volume of 100 μl) in a 96-well plate were incubated at 25° C. for a duration determined by the experimental protocol.
For the combined assay, similar concentrations of QAC18 and APC16 were prepared and 18.75 μg/ml and 37.5 μg/ml of QAC12 added (to a final volume of 100 μl) were added to 10^5 cells/mi in a 96-well plate and later incubated at 25° C. for a duration determined by the experimental protocol. Resazurin (7-Hydroxy-31-phenoxazin-3-one 10-oxide; 5 mg/ml; McBride J et al (2005) J. Clin. Microbiol.; 43: 629-634) and trypan blue (0.4 μg/ml; Mafra C S P et al (2013) Investig. Ophthalmol. Vis. Si.; 54: 6363-6372) were then added to trophozoites and cysts respectively after being exposed to the compounds and the cell viability estimated microscopically and from changes in absorbance (at 595 nm and 570 nm) respectively.
(§2) Efficacy was expressed as a percentage of untreated controls for each drug concentration used and the data used to calculate the IC50. Cell density was estimated using the modified Neubaur hemocytometer and expressed as cells/ml.

[3] = QACs; cited from earlier work
[4] = test system: A. castellanii trophozoites; assay: Cytotoxicity assay on trophozoites (resazurin / alamarBlue); assay type: cell-based, Acanthamoeba castellanii ATCC 50370; details: for IC50: Acanthamoeba castellanii, Table 2, read-out: IC50 A. castellanii trophozoites
Experimental: as §1
The compounds used in this study all contained alkyl-carbon chains: three APCs [dodecyl-PC (APC12), tetradecyl-PC. (APC14) and hexadecyl-PC (APC16)] (Anatrace) and four QACs [docdecyl-TMAB (QAC12), tetradecyl-TMAB (QAC14), hexadecyl-TMAB (QAC16) and octadecyl-TMAB (QAC18)](Sigma). All were prepared to a stock concentration of 1 mg/ml and diluted as required by the experimental protocol in the cytotoxicity assays. […]
[…] Resazurin (7-Hydroxy-31-phenoxazin-3-one 10-oxide; 5 mg/ml; McBride J et al (2005) J. Clin. Microbiol.; 43: 629-634) and trypan blue (0.4 μg/ml; Mafra C S P et al (2013) Investig. Ophthalmol. Vis. Si.; 54: 6363-6372) were then added to trophozoites and cysts respectively after being exposed to the compounds and the cell viability estimated microscopically and from changes in absorbance (at 595 nm and 570 nm) respectively.
as §2

gDNA from A. castellanii = assay: QAC-DNA interaction assay; assay type: binding, Acanthamoeba castellanii; details: DNA:QAC ratios 1:0, 1:1, 1:10, 1:20; 15 min
Experimental: FIGS. 3A and 3B show the QAC-DNA interaction. The absorbance of genomic DNA (0.6 ng/ml) extracted from A. castellani trophozoites measured at 260 nm with the Nanodrop after incubating for 15 minutes with 0 ng/ml, 0.6 ng/ml, 6 ng/ml or 12 ng/ml of QAC12 (FIG. 3A) or QAC16 (FIG. 3B) to give ratios of 1:0, 1:1, 1:10 and 1:20. DNA absorbance increased and decreased with increased […] and [QAC12] respectively. Data is mean absorbance at 260 nm±SD; n=4 independent experiments performed in triplicates.
Genomic deoxynucleic acids (gDNA) from 10^8 A. castellanii trophozoites (treated with and without QAC) were extracted from cells harvested by centrifugation (850×g, 10 min), lysed with UNSET buffer (8M urea, […] NaCl, 2% SDS, […] ethylenediaminetetraacetic acid (EDTA), […] Tris-HCl, pH 7.5) and the DNA extracted with phenol-chloroform (1:1 v/v). The biphasic suspension with DNA enriched on the […] was centrifuged (12,000×g for 15 min, 4° C.) for clear separation and transferred to a new microcentrifuge tube. The DNA was precipitated with cold ethanol (100%, v/v) and 0.3M sodium acetate, washed twice with 70% (v/v) ethanol (12,000×g for 10 min, 4° C.), air dried and resuspended in distilled water. […]

[5] = test system: A. castellanii trophozoites; assay: Trophozoite-cyst conversion in encystment medium; assay type: cell-based, Acanthamoeba castellanii ATCC 50370; details: encystment medium supplemented with 37.5 μg/ml of QAC12
Experimental: Acanthamoeba trophozoites (10^5 cells/ml) incubated for up to 192 h in encystment medium inoculated with (dark grey) and without (light grey) QAC12 at 25° C. The number of trophozoites remaining estimated microscopically and expressed as a percent of total trophozoites at the start of the assay. Data is mean […]±SD; n=4 independent experiments performed in triplicates.
as §1

[6] = test system: A. castellanii trophozoites; assay: Drug wash-out / alamarBlue-reversion assay, trophozoites; assay type: cell-based, Acanthamoeba castellanii ATCC 50370
A. castellanii cysts [7] = assay: Drug wash-out / alamarBlue-reversion assay, cysts; assay type: cell-based, Acanthamoeba castellanii ATCC 50370; details: for Back transformation to trophozoites after drug wash-out: Cysts; as to Back transformation to trophozoites after drug wash-out: key: +: indicates cells reverting back to trophozoites after washout; and capable of oxidizing reduced alamarBlue from blue to pink after 8 days; −: indicates cell that did not revert to trophozoites after wash-out and unable to oxidise reduced alamarBlue solution
Experimental: For the drug kinetic assay, viability was assessed by the linked alamarBlue-reversion assay. Drug-treated cysts were washed with PBS and fresh PG medium was added to allow reversion to trophozoites for 5 days, after which, alamar blue was added and viability estimated as described above.
The cysticidal activity of QAC16 to QAC18 strongly correlated with (a) the alkyl-carbon chain lengths (Table 2) and the duration of drug contact (FIG. 8H). Like trophozoites, death was via leakage judged by 40% and 50% increase in DNA and proteins in the external milieu after 1 h (FIGS. 9A and 9B). To investigate if the cyst were viable, a complementary viability assay that involved, drug washout, incubation in PG medium to allow reversion of viable cyst to trophozoite for 7 days, and estimation of viability using the oxidation of resazurin after 6 h.

[8] = read-out: IC50 A. castellanii cysts

For `CCCCCCCCCCCC[N+](C)(C)C.[Br-]` [QAC12, Dodecyltrimethyl ammonium bromide], the “Interaction profile of QAC combined with APCs” value [1] is given as “Significant synergistic ‘well defined’ interactions were more predominant”, the IC50 (A. castellanii cysts [2]; [8]) is given as > 37.5 µg/mL and > 122 µM and the CMC [3] is given as “^+3.5 ± 0.3 μM”. The “Increase in absorbance at 570 nm (cell density) relative to control cells” value ([4]; 96 h at 25° C., peak at 37.7 μg/ml, alamarBlue) was 4 fold, the IC50 [4] was > 37.5 µg/mL and > 122 µM and the “Effect on trophozoite biomass” value ([4]; FIG. 4) was “dose-dependent increased biomass”. For the same compound, the “Activity against A. castellanii trophozoites” value ([4]; at up to 37.5 μg/ml) was “inactive”, the “Change of gDNA absorbance at 260 nm with increasing QAC” value (gDNA from A. castellanii) was “dose-dependent decreased absorbance” and the Delay of encystation [5] was 96 h.
With `CCCCCCCCCCCCCCCC[N+](C)(C)C.[Br-]` [QAC16, hexadecyltrimethyl ammonium bromide] the “Interaction profile of QAC combined with APCs” value [1] was “less frequent and ‘noisy’”, the IC50 (A. castellanii cysts [2]; 96 h, read-out: Estimated IC50 against matured cysts) was 19 ± 0.03 µg/mL and the IC50 (A. castellanii cysts [2]; [8]) was 19.2 µg/mL and 72 µM. For the same compound, the CMC [3] was 0.26 ± 0.2 µM, the IC50 [4] was 4.9 µg/mL and 19 µM and the “Back transformation to trophozoites after drug wash-out” value (“Back transformation to trophozoites” below) ([6]; 9.375 μg/ml, 1 h) was “+”. The “Back transformation to trophozoites” value ([6]; 9.375 μg/ml, 24 h) was “+”, the “Back transformation to trophozoites” value ([6]; 9.375 μg/ml, 48 h) was “+” and the “Back transformation to trophozoites” value ([6]; 9.375 μg/ml, 72 h) was “+”. The “Back transformation to trophozoites” value ([6]; 9.375 μg/ml, 96 h) was “+”, the “Back transformation to trophozoites” value ([6]; 18.75 μg/ml, 1 h) was “+” and the “Back transformation to trophozoites” value ([6]; 18.75 μg/ml, 24 h) was “−”. The “Back transformation to trophozoites” value ([6]; 18.75 μg/ml, 48 h) was “−”, the “Back transformation to trophozoites” value ([6]; 18.75 μg/ml, 72 h) was “−” and the “Back transformation to trophozoites” value ([6]; 18.75 μg/ml, 96 h) was “−”. For the same compound, the “Back transformation to trophozoites” value ([6]; 37.50 μg/ml, 1 h) was “−”, the “Back transformation to trophozoites” value ([6]; 37.50 μg/ml, 24 h) was “−” and the “Back transformation to trophozoites” value ([6]; 37.50 μg/ml, 48 h) was “−”. For the same compound, the “Back transformation to trophozoites” value ([6]; 37.50 μg/ml, 72 h) was “−”, the “Back transformation to trophozoites” value ([6]; 37.50 μg/ml, 96 h) was “−” and the “Amoebotoxicity after wash-out and replacement with PG medium” value ([6]; after 24 h at 18.75 μg/ml) was “amoebotoxic”. The “Amoebotoxicity after wash-out and replacement with PG medium” value ([6]; from 1 h onwards at 37.5 μg/ml) was “amoebotoxic”, the “Resurgence of cysts after drug washout” value (A. castellanii cysts [7]; 37.5 μg/ml after 48 h) was “No resurgence” and the “Back transformation to trophozoites” value (A. castellanii cysts [7]; 9.375 μg/ml, 24 h) was “+”. For the same compound, the “Back transformation to trophozoites” value (A. castellanii cysts [7]; 9.375 μg/ml, 48 h) was “+”, the “Back transformation to trophozoites” value (A. castellanii cysts [7]; 9.375 μg/ml, 72 h) was “+” and the “Back transformation to trophozoites” value (A. castellanii cysts [7]; 18.75 μg/ml, 24 h) was “+”. The “Back transformation to trophozoites” value (A. castellanii cysts [7]; 18.75 μg/ml, 48 h) was “+”, the “Back transformation to trophozoites” value (A. castellanii cysts [7]; 18.75 μg/ml, 72 h) was “+” and the “Back transformation to trophozoites” value (A. castellanii cysts [7]; 37.50 μg/ml, 24 h) was “+”. For the same compound, the “Back transformation to trophozoites” value (A. castellanii cysts [7]; 37.50 μg/ml, 48 h) was “−” and the “Back transformation to trophozoites” value (A. castellanii cysts [7]; 37.50 μg/ml, 72 h) was “−”.
